Among the data in patent US10954216B2, “BMP-signal-inhibiting compound” (RIKEN, priority 2016, dated 2021) are IC50 values, retold here.

In general, IC50 refers to the concentration that gives 50% inhibition.

Each structure is given as a SMILES string.

In one assay the test system is BMP signal in MDA-231-D-BREFluc/Rluc cells. The experiment in a line: BMP signal inhibitory effect (AlphaScreen SureFire SMAD1 p-Ser463/465, BMP-6 stimulation). The format is cell-based.
Settings: not given
The method, then:
BMP Signal Inhibitory Effect
A BMP signal inhibitory activity of a compound of the present invention was evaluated according to the following method.
MDA-231-D-BREFluc/Rluc cells prepared according to the method described in Y. Katsuno et al., Oncogene, 27, 6322 (2008) were incubated at 37° C. for 2 hours together with test compounds, and BMP-6 (commercially available from R&D System, 507-BM-020) was then added thereto, and the mixture was additionally incubated at 37° C. for 30 minutes. A Lysis Buffer and Acceptor mix of AlphaScreen SureFire SMAD1 (p-Ser463/465) assay kit (commercially available from Perkin Elmer, TGRSM1S10K) were sequentially added thereto, the mixture was incubated at room temperature for 2 hours, and AlphaScreen Protein A kit (commercially available from Perkin Elmer, 6760617) was then added thereto, and standard AlphaScreen settings of Alpha Technology—compatible plate reader (commercially available from Perkin Elmer, EnSpire) was used for measurement.
The compound `CCn1cc(-c2ccnc(Nc3ccc(C4CC5CCC(C4)N5CCOC)cc3)n2)c(-c2cccnc2)n1` (stereo not drawn) [Example 85, 4-(1-Ethyl-3-(pyridin-3-yl)-1H-pyrazol-4-yl)-N-(4-(8-(2-methoxyethyl)-8-azabicyclo [3.2.1]octan-3-yl)phenyl)pyrimidin-2-amine] gave an IC50 of 7.3 nM.
Consider `CCn1cc(-c2ccnc(Nc3ccc(N4CC5CCC(C4)N5CCOC)cc3)n2)c(-c2cccnc2)n1` [Example 86, 4-(1-Ethyl-3-(pyridin-3-yl)-1H-pyrazol-4-yl)-N-(4-(8-(2-methoxyethyl)-3,8-diazabicyclo[3.2.1]octan-3-yl)phenyl)pyrimidin-2-amine], for which the IC50 stood at 12.9 nM.

The same assay, now with this note: BMP-6 stimulated MDA-231-D-BREFluc/Rluc cells, phospho-SMAD1 AlphaScreen; read-out: IC50.
In the case of `COCCn1cc(-c2ccnc(Nc3ccc4c(c3)CN(C)C4)n2)c(-c2cccnc2)n1` [Example 60, N-(4-(1-(2-methoxyethyl)-3-(pyridin-3-yl)-1H-pyrazol-4-yl)pyrimidin-2-yl)-2-methylisoindolin-5-amine], the IC50 was 6.4 nM.
For `CCn1cc(-c2ccnc(Nc3ccc4c(c3)CN(CCOC)C4)n2)c(-c2cccnc2)n1` [Example 61, N-(4-(1-ethyl-3-(pyridin-3-yl)-1H-pyrazol-4-yl)pyrimidin-2-yl)-2-(2-methoxyethyl)isoindolin-5-amine], the IC50 was determined as 7 nM.
Regarding `COCCN1Cc2ccc(Nc3nccc(-c4cn(CCOC)nc4-c4cccnc4)n3)cc2C1` [Example 62, 2-(2-Methoxyethyl)-N-(4-(1-(2-methoxyethyl)-3-(pyridin-3-yl)-1H-pyrazol-4-yl)pyrimidin-2-yl)isoindolin-5-amine], the IC50 was 10 nM.
On the same count and under the same terms, to `CN1Cc2ccc(Nc3nccc(-c4cn(CC(C)(C)O)nc4-c4cccnc4)n3)cc2C1` [Example 63, 2-Methyl-1-(4-(2-((2-methylisoindolin-5-yl)amino)pyrimidin-4-yl)-3-(pyridin-3-yl)-1H-pyrazol-1-yl)propan-2-ol] belongs 3.9 nM; to `COCCn1cc(-c2ccnc(Nc3ccc4c(c3)CCN(C)C4)n2)c(-c2cccnc2)n1` [Example 64, N-(4-(1-(2-Methoxyethyl)-3-(pyridin-3-yl)-1H-pyrazol-4-yl)pyrimidin-2-yl)-2-methyl-1,2,3,4-tetrahydroisoquinolin-6-amine], 4 nM; to `CN1CCc2cc(Nc3nccc(-c4cn(CC(C)(C)O)nc4-c4cccnc4)n3)ccc2C1` [Example 65, 2-Methyl-1-(4-(2-((2-methyl-1,2,3,4-tetrahydroisoquinolin-6-yl)amino)pyrimidin-4-yl)-3-(pyridin-3-yl)-1H-pyrazol-1-yl)propan-2-ol], 3.3 nM.
Regarding `CCn1cc(-c2ccnc(Nc3ccc4c(c3)CCN(C3CC3)CC4)n2)c(-c2cccnc2)n1` [Example 66, 3-Cyclopropyl-N-(4-(1-ethyl-3-(pyridin-3-yl)-1H-pyrazol-4-yl)pyrimidin-2-yl)-2,3,4,5-tetrahydro-1H-benzo[d]azepin-7-amine], the IC50 came to 6.4 nM.
With `CCn1cc(-c2ccnc(Nc3ccc4c(c3)OCCN(C)C4)n2)c(-c2cccnc2)n1` [Example 67, N-(4-(1-ethyl-3-(pyridin-3-yl)-1H-pyrazol-4-yl)pyrimidin-2-yl)-4-methyl-2,3,4,5-tetrahydrobenzo[f][1,4]oxazepin-8-amine], the IC50 turned out to be 5.3 nM.
In the case of `CCn1cc(-c2ccnc(Nc3ccc(N4CCC(C)(N(C)C)CC4)cc3)n2)c(-c2cccnc2)n1` [Example 68, N-(4-(4-(Dimethylamino)-4-methylpiperidin-1-yl)phenyl)-4-(1-ethyl-3-(pyridin-3-yl)-1H-pyrazol-4-yl)pyrimidin-2-amine], the concentration for half-maximal inhibition (IC50) was 6.8 nM.
For the compound `CCn1cc(-c2ccnc(Nc3ccc(N4CCN5CCC4CC5)cc3)n2)c(-c2cccnc2)n1` [Example 69, N-(4-(1,4-diazabicyclo[3.2.2]nonan-4-yl)phenyl)-4-(1-ethyl-3-(pyridin-3-yl)-1H-pyrazol-4-yl)pyrimidin-2-amine], the IC50 was found to be 13 nM.
With `CCn1cc(-c2ccnc(Nc3ccc(-c4cnco4)cc3)n2)c(-c2cccnc2)n1` [Example 70, 4-(1-ethyl-3-(pyridin-3-yl)-1H-pyrazol-4-yl)-N-(4-(oxazol-5-yl)phenyl)pyrimidin-2-amine], the IC50 amounted to 33.6 nM.
Turning to `FC(F)(F)OCCn1cc(-c2ccnc(Nc3ccc(N4CCNCC4)cc3)n2)c(-c2cccnc2)n1` [Example 72, N-(4-(Piperazin-1-yl)phenyl)-4-(3-(pyridin-3-yl)-1-(2-(trifluoromethoxy)ethyl)-1H-pyrazol-4-yl)pyrimidin-2-amine], the IC50 was found to be 13.4 nM.
The same measure, in the same setting: to `CCn1cc(-c2ccnc(Nc3ccc4c(c3)CNC4)n2)c(-c2cccnc2)n1` [Example 73, N-(4-(1-ethyl-3-(pyridin-3-yl)-1H-pyrazol-4-yl)pyrimidin-2-yl)isoindolin-5-amine] belongs 7.2 nM; to `CC(=O)N1CCN(C(=O)c2ccc(Nc3nccc(-c4cn(CCc5ccccc5)nc4-c4cccnc4)n3)cc2)CC1` [Example 74, 1-(4-(4-((4-(1-phenethyl-3-(pyridin-3-yl)-1H-pyrazol-4-yl)pyrimidin-2-yl)amino)benzoyl)piperazin-1-yl)ethan-1-one], 39 nM; to `COCCN1CCN(c2ccc(Nc3nccc(-c4cn(C5CCOC5)nc4-c4cccnc4)n3)cc2)CC1` (stereo not drawn) [Example 76, N-(4-(4-(2-methoxyethyl)piperazin-1-yl)phenyl)-4-(3-(pyridin-3-yl)-1-(tetrahydrofuran-3-yl)-1H-pyrazol-4-yl)pyrimidin-2-amine], 46.1 nM.
Consider `COCCN1CCN(c2ccc(Nc3nccc(-c4cn(CC5(C)COC5)nc4-c4cccnc4)n3)cc2)CC1` [Example 77], for which the IC50 is 51.3 nM.
On to `CCn1cc(-c2ccnc(Nc3ccc(N4CCN(CC5CCCN5C)CC4)cc3)n2)c(-c2cccnc2)n1` (stereo not drawn) [Example 78, 4-(1-Ethyl-3-(pyridin-3-yl)-1H-pyrazol-4-yl)-N-(4-(4-((1-methylpyrrolidin-2-yl)methyl)piperazin-1-yl)phenyl)pyrimidin-2-amine], for which the IC50 was 12.7 nM.
For the compound `CN1CCCC1CN1CCN(c2ccc(Nc3nccc(-c4cn(C5COC5)nc4-c4cccnc4)n3)cc2)CC1` (stereo not drawn) [Example 79, N-(4-(4-((1-Methylpyrrolidin-2-yl)methyl)piperazin-1-yl)phenyl)-4-(1-(oxetan-3-yl)-3-(pyridin-3-yl)-1H-pyrazol-4-yl)pyrimidin-2-amine], the IC50 amounted to 35.7 nM.
With `COCCn1cc(-c2ccnc(Nc3ccc(N4CCN(CC5CCCN5C)CC4)cc3)n2)c(-c2cccnc2)n1` (stereo not drawn) [Example 80, 4-(1-(2-Methoxyethyl)-3-(pyridin-3-yl)-1H-pyrazol-4-yl)-N-(4-(4-((1-methylpyrrolidin-2-yl)methyl)piperazin-1-yl)phenyl)pyrimidin-2-amine], the IC50 was 26.7 nM.
For the compound `COCCN1CCN(c2ccc(Nc3nccc(-c4cn(CC(C)(C)O)nc4-c4cccnc4)n3)cc2)CC1` [Example 81, 1-(4-(2-((4-(4-(2-Methoxyethyl)piperazin-1-yl)phenyl)amino)pyrimidin-4-yl)-3-(pyridin-3-yl)-1H-pyrazol-1-yl)-2-methylpropan-2-ol], the IC50 stood at 21 nM.
For `COCCN1CCN(c2ccc(Nc3nccc(-c4cn(Cc5ccccc5C#N)nc4-c4cccnc4)n3)cc2)CC1` [Example 82], the IC50 was found to be 18.4 nM.
For the compound `CCn1cc(-c2ccnc(Nc3ccc(N4CCN(CCOC)CC4)c(C#N)c3)n2)c(-c2cccnc2)n1` [Example 83, 5-((4-(1-Ethyl-3-(pyridin-3-yl)-1H-pyrazol-4-yl)pyrimidin-2-yl)amino)-2-(4-(2-methoxyethyl)piperazin-1-yl)benzonitrile], the IC50 was determined as 14.3 nM.
For `CCn1cc(-c2ccnc(Nc3ccc(N4CCN(CCOC)CC4)nc3)n2)c(-c2cccnc2)n1` [Example 84, 4-(1-Ethyl-3-(pyridin-3-yl)-1H-pyrazol-4-yl)-N-(6-(4-(2-methoxyethyl)piperazin-1-yl)pyridin-3-yl)pyrimidin-2-amine], the 50% inhibitory concentration (IC50) came to 19.3 nM.
On the same count and under the same terms, then `CCn1cc(-c2ccnc(Nc3ccc(N4CCN(CC(N)=O)CC4)cc3)n2)c(-c2cccnc2)n1` [Example 87, 2-(4-(4-((4-(1-Ethyl-3-(pyridin-3-yl)-1H-pyrazol-4-yl)pyrimidin-2-yl)amino)phenyl)piperazin-1-yl)acetamide], with 29.7 nM; and `CCn1cc(-c2ccnc(Nc3ccc4c(c3)CN(CC3CCCO3)CC4)n2)c(-c2cccnc2)n1` (stereo not drawn) [Example 88, N-(4-(1-Ethyl-3-(pyridin-3-yl)-1H-pyrazol-4-yl)pyrimidin-2-yl)-2-((tetrahydrofuran-2-yl)methyl)-1,2,3,4-tetrahydroisoquinolin-7-amine], with 5.5 nM; and `CCn1cc(-c2ccnc(Nc3ccc4c(c3)CCN(CC3CCCO3)C4)n2)c(-c2cccnc2)n1` (stereo not drawn) [Example 89, N-(4-(1-Ethyl-3-(pyridin-3-yl)-1H-pyrazol-4-yl)pyrimidin-2-yl)-2-((tetrahydrofuran-2-yl)methyl)-1,2,3,4-tetrahydroisoquinolin-6-amine], with 5.7 nM.
Take `CCn1cc(-c2ccnc(Nc3ccc4c(c3)CCN(CC(N)=O)C4)n2)c(-c2cccnc2)n1` [Example 90, 2-(6-((4-(1-Ethyl-3-(pyridin-3-yl)-1H-pyrazol-4-yl)pyrimidin-2-yl)amino)-3,4-dihydroisoquinolin-2(1H)-yl)acetamide]: the IC50 was 21.6 nM.
In the case of `CCn1cc(-c2ccnc(Nc3ccc4c(c3)OCCN(CCOC)C4)n2)c(-c2cccnc2)n1` [Example 91, N-(4-(l-Ethyl-3-(pyridin-3-yl)-1H-pyrazol-4-yl)pyrimidin-2-yl)-4-(2-methoxyethyl)-2,3,4,5-tetrahydrobenzo[f][1,4] oxazepin-8-amine], the IC50 came out at 21.3 nM.
